Laboratory results as given in patent US10988474B2, “Compounds acting at multiple prostaglandin receptors giving a general anti-inflammatory response” (ALLERGAN, INC., priority 2011, dated 2021).

Columns and labels:
Format in all cases: cell-based
[1] = biological target: T1, human prostanoid IP receptor (Homo sapiens, UniProt P43119); test: FLIPR Ca2+ signaling PG antagonist assay, IP stable cell line; conditions: HEK-293 EBNA cells, human recombinant IP, no exogenous G-protein; standard agonist Cicaprost
T1 construct: expressed in transfected cells
T1 sequence (P43119 whole entry): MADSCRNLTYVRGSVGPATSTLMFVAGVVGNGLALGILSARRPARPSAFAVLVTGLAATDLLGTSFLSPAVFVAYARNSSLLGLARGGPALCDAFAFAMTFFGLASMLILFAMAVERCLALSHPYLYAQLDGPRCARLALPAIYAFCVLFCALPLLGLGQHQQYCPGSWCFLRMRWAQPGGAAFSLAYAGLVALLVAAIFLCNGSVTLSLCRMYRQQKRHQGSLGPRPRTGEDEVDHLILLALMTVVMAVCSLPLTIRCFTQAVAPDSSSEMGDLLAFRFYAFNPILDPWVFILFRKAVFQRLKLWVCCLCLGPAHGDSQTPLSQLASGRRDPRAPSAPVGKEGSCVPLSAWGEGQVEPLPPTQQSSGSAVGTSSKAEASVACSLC
Method: (§1) The above compounds were tested for PG antagonist activity as follows using human recombinant prostanoid receptor (DP1, EP1-4, FP, IP and TP) stable cell lines: In order to measure the response of Gs and Gi coupled prostanoid receptors as a Ca^2+ signal, chimeric G protein cDNAs were used. Stable cell lines over-expressing human prostanoid DP1, EP1-4, FP, IP, and TP receptors were established as follows:
(§2) Briefly, human prostanoid DP1, EP2, and EP4 receptor cDNAs were co-transfected with chimeric Gqs cDNA containing a haemagglutanin (HA) epitope; human prostanoid EP3 receptors were co-transfected with chimeric Gqi-HA; human EP1, FP, IP, and TP receptor cDNAs were expressed with no exogenous G-proteins. Gqs and Gqi chimeric cDNAs (Molecular Devices, Sunnyvale, Calif., U.S.A.), as well as cDNAs of prostanoid receptors, were cloned into a pCEP4 vector with a hygromycin B selection marker. Transfection into HEK-293 EBNA (Epstein-Barr virus nuclear antigen) cells was achieved by the FuGENE 6 transfection Reagent (Roche Applied Science, Indianapolis, Ind., USA). Stable transfectants were selected according to hygromycin resistance. Because Gqs and Gqi contained an HA epitope, G-protein expression was detected by Western blotting analysis using anti-mouse HA monoclonal antibody and horseradish peroxidase (HRP)-conjugated secondary antibody, while functional expression of prostanoid receptors was detected by FLIPR screening (Matias et al., 2004). These stable cell lines were validated using previously published antagonists at 10 μM against serial dilutions of standard agonists by FLIPR functional assays for Ca^2+ Signaling (as described below).
(§3) Ca^2+ signaling studies were performed using a FLIPR TETRA system (Molecular Devices, Sunnyvale, Calif., USA) in the 384-format. This is a high-throughput instrument for cell-based assays to monitor Ca^2+ signaling associated with GPCRs and ion channels. Cells were seeded at a density of 5×10^4 cells/well in BioCoat poly-D-lysine coated, black wall, clear bottom 384-well plates (BD Biosciences, Franklin lakes, NJ, USA) and allowed to attach overnight in an incubator at 37° C. The cells were then washed twice with HBSS-HEPES buffer (Hanks' balanced salt solution without bicarbonate and phenol red, 20 mM HEPES, pH 7.4) using an ELx405 Select CW Microplate Washer (BioTek, Winooski, Vt., USA). After 60 min of dye-loading in the dark using the Ca^2+-sensitive dye Fluo-4AM (Invitrogen, Carlsbad, Calif., USA), at a final concentration of 2×10^−6M, the plates were washed 4 times with HBSS-HEPES buffer to remove excess dye and leaving 50 μl of buffer in each well. The plates were then placed in the FLIPR TETRA instrument and allowed to equilibrate at 37° C. Compounds were added in a 25 μl volume to each well to give final concentrations of 0.1 μM, 0.3 μM, 1 μM, 3 μM, 10 μM, and 30 μM; or 0.067 μM, 0.1 μM, 0.2 μM, 0.3 μM, 0.67 μM, and 1 μM for cells over-expressing TP receptors. After 4.5 minutes, a 7-point serial dilution of the standard agonist for the corresponding receptor, in a 25 μl volume was injected at the final concentrations from 10^−11M to 10^−5M in 10-fold serial dilution increments for cells expressing human recombinant DP1, EP1, EP2, EP3, EP4, FP, and IP receptors. The dose range for the standard agonist for human recombinant TP receptors was from 10^−12M to 10^−6M. HBSS-HEPES buffer was used as the negative control for the standard agonists. Cells were excited with LED (light emitting diode) excitation at 470-495 nm and emission was measured through an emission filter at 515-575 nm. Assay plates were read for 3.5 minutes using the FLIPR^TETRA. The peak increase in fluorescence intensity was recorded for each well. On each plate, negative controls, dose response of positive controls, and co-treatments of antagonist-agonist for each dose were in triplicates. Standard agonists were as follows: DP=BW 245C, EP1-EP4=PGE2, FP=17-phenyl-PGF2α, IP=Cicaprost, and TP=U-46619. […]

[2] = biological target: T2, human prostanoid TP receptor (Homo sapiens, UniProt P21731); test: FLIPR Ca2+ signaling PG antagonist assay, TP stable cell line; conditions: HEK-293 EBNA cells, human recombinant TP, no exogenous G-protein; standard agonist U-46619
T2 construct: expressed in transfected cells
T2 sequence (P21731 1-343): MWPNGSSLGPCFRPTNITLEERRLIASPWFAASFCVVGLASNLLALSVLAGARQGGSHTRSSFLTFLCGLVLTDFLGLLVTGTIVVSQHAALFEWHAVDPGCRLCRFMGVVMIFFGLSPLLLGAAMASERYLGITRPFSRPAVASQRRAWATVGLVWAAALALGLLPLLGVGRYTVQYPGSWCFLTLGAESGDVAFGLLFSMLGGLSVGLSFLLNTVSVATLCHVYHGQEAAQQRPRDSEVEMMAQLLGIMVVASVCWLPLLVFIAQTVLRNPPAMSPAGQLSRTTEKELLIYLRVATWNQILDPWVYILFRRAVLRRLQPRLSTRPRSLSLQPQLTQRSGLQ
Method: as §1, §2, §3

[3] = biological target: T3, human prostanoid FP receptor (Homo sapiens, UniProt P43088); test: FLIPR Ca2+ signaling PG antagonist assay, FP stable cell line; conditions: HEK-293 EBNA cells, human recombinant FP, no exogenous G-protein; standard agonist 17-phenyl-PGF2α
T3 construct: expressed in transfected cells
T3 sequence (P43088 whole entry): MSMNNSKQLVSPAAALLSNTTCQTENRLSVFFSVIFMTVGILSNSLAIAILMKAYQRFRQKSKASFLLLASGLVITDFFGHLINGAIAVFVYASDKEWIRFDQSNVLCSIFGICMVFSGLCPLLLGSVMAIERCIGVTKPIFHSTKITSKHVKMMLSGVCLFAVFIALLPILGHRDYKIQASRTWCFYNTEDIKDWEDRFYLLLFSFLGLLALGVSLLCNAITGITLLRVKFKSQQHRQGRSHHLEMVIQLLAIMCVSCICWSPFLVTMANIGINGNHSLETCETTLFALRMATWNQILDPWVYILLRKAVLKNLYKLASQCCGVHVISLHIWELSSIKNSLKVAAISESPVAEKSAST
Method: as §1, §2, §3

[4] = biological target: T4, human prostanoid DP1 receptor (Homo sapiens, UniProt Q13258); test: FLIPR Ca2+ signaling PG antagonist assay, DP1 stable cell line; conditions: HEK-293 EBNA cells, human recombinant DP1 with chimeric Gqs; standard agonist BW 245C; read-out: DP (Kb, PG antagonist activity)
T4 construct: expressed in transfected cells
T4 sequence (Q13258 1-359): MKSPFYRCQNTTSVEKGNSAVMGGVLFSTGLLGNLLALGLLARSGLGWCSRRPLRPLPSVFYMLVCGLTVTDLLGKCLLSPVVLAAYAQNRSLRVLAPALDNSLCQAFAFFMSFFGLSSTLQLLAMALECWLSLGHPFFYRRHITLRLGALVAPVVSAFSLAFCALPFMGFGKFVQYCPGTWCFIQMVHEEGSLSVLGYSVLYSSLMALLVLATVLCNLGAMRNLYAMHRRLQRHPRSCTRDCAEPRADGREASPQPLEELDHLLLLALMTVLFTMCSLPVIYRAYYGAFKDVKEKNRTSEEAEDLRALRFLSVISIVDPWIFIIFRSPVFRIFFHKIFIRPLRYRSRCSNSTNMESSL
Method: as §1, §2, §3

Compound	Kb [1]	Kb [2]	Kb [3]	Kb [4]
1-(5-Bromo-2-Isobutoxy-Benzyl)-1H-Pyrrolo[2,3-B]Pyridine-5-Carboxylic Acid [Example 30]	6000 nM	5 nM	–	–
CC(C)COc1ccc(Br)cc1Cn1cc2ccc(C(=O)O)cc2n1 [Example 43, 2-(5-Bromo-2-Isobutoxy-Benzyl)-2H-Indazole-6-Carboxylic Acid]	4900 nM	110 nM	2200 nM	2000 nM
1-[5-Bromo-2-(2-Ethyl-Butoxy)-Benzyl]-1H-Pyrrolo[2,3-B]Pyridine-5-Carboxylic Acid [Example 31]	520 nM	–	–	–
CCC(CC)COc1ccc(OC(F)(F)F)cc1Cn1ccc2cc(C(=O)O)cnc21 [Example 76, 1-[2-(2-Ethyl-Butoxy)-5-Trifluoromethoxy-Benzyl]-1H-Pyrrolo[2,3-B]Pyridine-5-Carboxylic Acid]	1400 nM	20 nM	–	–
